Series [1] concerns MDA-MB-231 cells. Put plainly: 3D anchorage independent growth (mammosphere formation) assay, MDA-MB-231. The series is classed as cell-based. The protocol:
Bar graphs are shown as the mean±SEM; t-test, two-tailed test: * P<0.05, ** P<0.01, **** P<0.0001.
(§1) FIGS. 5A and 5B show IC50 curves for Compound [I] calculated using GraphPad Prism. The results are based on mammosphere formation assay of Compound [I] on both colonies and spheres, for MCF-7 cells (FIG. 5A), and for MDA-MB-231 cells (FIG. 5B).
(§2) 3D Anchorage Independent Growth Assay: This assay is also referred to as the mammosphere formation assay. A single-cell suspension was prepared using enzymatic, and manual disaggregation (25-g needle). Then, cells were plated at a density of 500 cells/cm^2 in mammosphere medium (DMEM-F12+1× B-27 Plus Supplement+20 ng/ml EGF+Pen/Strep) under non-adherent conditions, in culture dishes pre-coated with (2-hydroxyethylmethacrylate) (poly-HEMA, Sigma Aldrich Inc.), called “mammosphere plates.” Cells were grown for 5 days and maintained in a humidified incubator at 37 °C. After 5 days of culture, 3D-mammospheres >50 μm were counted using an eye piece (“graticule”), and the percentage of cells plated which formed spheres was calculated and is referred to as percent mammosphere formation, and was normalized to one (1=100% MFE). 3D mammosphere formation efficiency (MFE) was analyzed in both the ATP-low and ATP-high sub-populations of cells. All 3D mammosphere experiments were performed in triplicate, at least 3 times independently.

A short description of series [2]: SRB cell viability assay, hTERT-BJ1. The series is classed as cell-based. The following applies: human, hTERT-BJ1 cells, cytotoxic starting at about, FIG. 1C, read-out: concentration at which cytotoxicity starts. From the text:
(§3) The mitochondria specific transcription inhibitor (MSTI) compounds disclosed herein represent a new class of compounds having exceptional selectivity and activity towards cancer cells. Embodiments of the MSTI compounds disclosed herein may be used as therapeutic agent to selectively eradicate CSCs for treating and/or preventing tumor recurrence and/or metastasis. […] This assay measures the amount of residual protein that adheres to tissue culture dishes and is a surrogate marker of cell viability.
(§4) Reagents and Model Cell Lines: It should be apparent that other cell lines may be used without departing from the present approach. The human breast adenocarcinoma cell line MCF-7 was from the American Type Culture Collection (ATCC). hTERT-BJ1 cells were from Clontech, Inc. MCF-7 and hTERT-BJ 1 cells were grown in DMEM supplemented with 10% fetal bovine serum, GlutaMAX and 1% penicillin-streptomycin and incubated at 37C in a humidified 5% C02 incubator. The medium was changed 2-3 times/week.
(§5) The present approach includes methods of confirming cell viability. Persons of skill in the art may select one or more methods for confirming cell viability suitable for the particular embodiment. […] Finally, the protein-bound dye was dissolved in a 10 mM Tris, pH 8.8 solution and read using the plate reader at 540-nm. […]

Series [3] has as its system MDA-MB-231 cells. The experiment in a line: 2D colony formation, MDA-MB-231. The series is classed as cell-based.
Description: FIGS. 4A and 4B show the effect of Compound [I] at different concentrations on MDA-MB-231 colony formation (A) representative phase images of 2D-colonies, and (B) expressed in terms of colony formation relative to the control. […] Bar graphs are shown as the mean±SEM; t-test, two-tailed test: **** P<0.0001.
as §1

A short description of series [4]: In vivo chicken embryo toxicity assessment (CAM assay). The following applies: chicken, embryo.
In series [5] the test system is MCF-7 cells. Put plainly: 2D colony formation, MCF-7. The series is classed as cell-based, human.
Description: FIGS. 2A and 2B show the effect of Compound [I] at different concentrations on MCF-7 colony formation (A) in petri dishes, and (B) expressed in terms of colony formation relative to the control.
as §1

Series [6] relates to MCF-7 cells. Put plainly: 3D anchorage independent growth (mammosphere formation) assay, MCF-7. The series is classed as cell-based, human.
Description: The following paragraphs summarize data for Compound [I]. It should be appreciated that preliminary results for other embodiments are consistent with the results for Compound [I], but analysis is ongoing. FIGS. 1A-1C show mammosphere formation results, SRB assay results on MCF-7 cells, and SRB assay results on BJ1-hTERT cells, for different concentrations of Compound [I]. The asterisks indicate P-value, with ** indicating P<0.01, *** indicating P<0.001, and **** indicating P <0.0001. […] FIGS. 1B and 1C show results of the SRB assay for (B) MCF-7 cells and (C) hTERT-BJ1 cells.
as §1, §2

Series [7] relates to MCF-7 cells. Put plainly: SRB cell viability assay, MCF-7. The series is classed as cell-based. Conditions: Homo sapiens, MCF7, cytotoxic starting at, FIG. 1B, read-out: concentration at which cytotoxicity starts.
Description: as §3, §4, §5

In series [8] the test system is MCF-7 cells. Put plainly: Seahorse XF96 oxygen consumption rate (OCR), mitochondrial respiration, MCF-7. The series is classed as cell-based, human. The method, then: FIGS. 6A-6D show mitochondrial respiration, basal respiration, maximal respiration, and ATP production, respectively, for different concentrations of Compound [I] on MCF-7 cells. The metabolic profile MCF-7 was performed using the Seahorse XF96 Analyzer after 6 days of treatment with Compound [I].

The subject of series [9] is MDA-MB-231 cells. Put plainly: Chorio-allantoic membrane (CAM) assay in chicken eggs, tumor growth. The series is classed as in vivo. Conditions: daily for 8 days; tumors weighed day E18; FIG. 8A. The method, then:
The well-established chorio-allantoic membrane (CAM) assay in chicken eggs were used to quantitatively measure tumor growth in MDA-MB-231 cells. An inoculum of 1×10^6 MDA-MB-231 cells was added onto the Upper CAM of each egg on Day 9 and then eggs were then randomized into groups. On day 10, tumors were detectable and were then treated daily for 8 days with vehicle alone (1% DMSO in PBS), or Compound [I]. After 8 days of drug administration, on day E18, all tumors were weighed. […] Bar graphs are shown as the mean±SEM; t-test, two tailed test: * P<0.05, **** P<0.0001.

In a further series the test system is chicken embryo. Put plainly: In vivo chicken embryo toxicity assessment (CAM assay).
Series [10] has as its system MCF-7 cells. Put plainly: Extracellular acidification rate (ECAR), glycolytic function, MCF-7. The series is classed as cell-based, human. The text has this: FIGS. 7A-7D show glycolytic function, glycolysis, glycolytic capacity, and glycolytic reserve, respectively, for different concentrations of Compound [I] on MCF-7 cells.
The test system of series [11] is MDA-MB-231 cells. Put plainly: CAM assay in chicken eggs, spontaneous tumor metastasis (qPCR of human Alu sequences). The series is classed as in vivo. The following applies: daily for 8 days, Lower CAM, FIG. 8B. The method, then: The CAM assay was used in chicken eggs to quantitatively measure spontaneous tumor metastasis in MDA-MB-231 cells. An inoculum of 1×10^6 MDA-MB-231 cells was added onto the Upper CAM of each egg on Day 9 and then eggs were then randomized into groups. On day 10, tumors were detectable and they were then treated daily for 8 days, with vehicle alone (1% DMSO in PBS), or Compound [I]. After 8 days of drug administration, the Lower CAM was collected to evaluate the number of metastatic cells and analyzed by qPCR with specific primers for Human Alu sequences. […] Bar graph is shown as the mean±SEM; t-test, two tailed test: ns P >0.05, ** P <0.01.

The subject of series [12] is mitochondrial RNA polymerase (POLRMT). The following applies: as a POLRMT inhibitor; cited from earlier work.
Series [13] concerns human cancer cell xenografts. The following applies: oral; cited from earlier work.
In the next series the test system is mice. The following applies: oral; four-week trial in mice; cited from earlier work.

pIC50: −log10 of the molar value.

Turning to `CCN(CC(=O)NCCN(C)C)C(=O)[C@@H](C)Oc1ccc2c(-c3ccc(NC(=O)CCCCCCCCCCC[P+](c4ccccc4)(c4ccccc4)c4ccccc4)cc3Cl)cc(=O)oc2c1.[Cl-]` [Compound [I], [12-[3-chloro-4-[7-[(1R)-2-[2-[2-(dimethylamino)ethylamino]-2-oxo-ethyl]-ethyl-amino]-1-methyl-2-oxo-ethoxy]-2-oxo-chromen-4-yl]anilino]-12-oxo-dodecyl]-triphenyl-phosphonium chloride], the pIC50 was 5.09 in the series with MDA-MB-231 cells [1] (Homo sapiens, MDA-MB-231 spheres, GraphPad Prism, FIG. 5B); 5.82 in the series on MDA-MB-231 cells [3] (Homo sapiens, MDA-MB-231 colonies, GraphPad Prism, FIG. 5B); 6.15 in the series on MCF-7 cells [5] (Homo sapiens, MCF7, MCF-7 colonies, GraphPad Prism, FIG. 5A); 5.49 in the series with MCF-7 cells [6] (Homo sapiens, MCF7, MCF-7 spheres, GraphPad Prism, FIG. 5A). The figures for the MCC (in series [2]; in the series with MCF-7 cells [7]) were around 2500 nM and 1000 nM, respectively. Also, the survival at 100 µM in series [4] (100 μM, read-out: % Alive) turned out to be 100%. Also, the mortality at 100 µM in [4] (100 μM, read-out: % Dead) was 0%. The survival at 250 µM in series [4] (250 μM, read-out: % Alive) is 100%. Besides, the mortality at 250 µM in series [4] (250 μM, read-out: % Dead) came out at 0%. Besides, the survival at 500 µM in [4] (500 μM, read-out: % Alive) is 87.5%. Further, the mortality at 500 µM in series [4] (500 μM, read-out: % Dead) amounted to 12.5%. Also, the IC100 in the series on MCF-7 cells [5] (Homo sapiens, MCF7, complete inhibition, FIG. 2B, read-out: concentration from which MCF-7 colony formation is completely inhibited) turned out to be 2.5 µM. Besides, the inhibition at 2.5 µM in the series on MCF-7 cells [6] (Homo sapiens, MCF7, 2.5 μM, FIG. 1A, read-out: inhibition of MCF-7 spheres) was above 50%.

For `CCN(CC(=O)NCCN(C)C)C(=O)[C@@H](C)Oc1ccc2c(-c3ccc(NC(=O)CCCCCCCCCCC[P+](c4ccccc4)(c4ccccc4)c4ccccc4)cc3Cl)cc(=O)oc2c1.[Cl-]` [Compound [I]], the “MDA-MB-231 3D mammosphere formation” value in the series on MDA-MB-231 cells [1] (FIG. 3A) was “significantly decreased”. For the same compound, the “oxygen consumption rate (OCR)” value in the series on MCF-7 cells [8] (0.5 μM and 1 μM, after 6 days of treatment, FIG. 6A) is given as “reduction”. Moreover, the basal respiration result in the series on MCF-7 cells [8] (0.5 μM and 1 μM, after 6 days of treatment, FIG. 6B) is listed as “decreases”. Besides, in the series on MCF-7 cells [8] (0.5 μM and 1 μM, after 6 days of treatment, FIG. 6C), the maximal respiration entry is on record as “decreases”. For the same compound, the ATP production entry with MCF-7 cells [8] (0.5 μM and 1 μM, after 6 days of treatment, FIG. 6D) is recorded as “decreases”. Also, in the series with MCF-7 cells [8] (overall conclusion), the mitochondrial respiration entry is reported as “specifically inhibits mitochondrial respiration”. The tumor growth entry in the series with MDA-MB-231 cells [9] is “potently inhibits tumor growth”. The MDA-MB-231 colony formation result with MDA-MB-231 cells [3] (2D colonies, FIGS. 4A-4B, **** P<0.0001) is listed as “significantly decreases”. Also, the “effect on colony formation versus sphere formation” value in the series on MDA-MB-231 cells [3] (MDA-MB-231, from IC50 values of Table 1) is reported as “more effective on colony formation, as compared to sphere formation”; with MCF-7 cells [5] (MCF-7, from IC50 values of Table 1) it was “more effective on colony formation, as compared to sphere formation”. Besides, the Alive in the series with chicken embryo (100 μM, of 17 embryos) is given as 17; in the series with chicken embryo (250 μM, of 16 embryos), 16; in the series on chicken embryo (500 μM, of 16 embryos) it was 14. Besides, the Dead in the series with chicken embryo (100 μM, of 17 embryos) is reported as 0; in the series on chicken embryo (250 μM, of 16 embryos), 0; in the series with chicken embryo (500 μM, of 16 embryos), 2. In the series with chicken embryo (at concentrations several orders of magnitude above those with potent activity, FIG. 9), the “toxicity towards normal cells” value is “not toxic towards normal cells”. For the same compound, the MCF-7 colony formation result in the series on MCF-7 cells [5] (2D colonies, FIG. 2A) is listed as “significantly decreased”. For the same compound, in the series on MCF-7 cells [10] (FIG. 7B), the glycolysis result is on record as “No significant changes”. Further, the glycolytic capacity entry in the series on MCF-7 cells [10] (FIG. 7C) is reported as “No significant changes”. For the same compound, the glycolytic reserve result in the series on MCF-7 cells [10] (FIG. 7D) was “No significant changes”. Also, the “glycolysis (overall conclusion)” value in the series with MCF-7 cells [10] (FIGS. 7A-7D) is given as “does not affect glycolysis”. Further, the metastasis result in the series with MDA-MB-231 cells [11] is “targets and prevent cancer metastasis”. In addition, the “inhibition of MCF-7 spheres” value was “near complete inhibition” with MCF-7 cells [6] (10 μM, FIG. 1A) and “inhibition of MCF-7 spheres at all concentrations” in the series on MCF-7 cells [6] (at all concentrations, FIG. 1A).

In the case of `C[C@@H](Oc1ccc2c(-c3ccc(F)cc3Cl)cc(=O)oc2c1)C(=O)N1CCC[C@H](C(=O)O)C1` [POLRMT inhibitor], the “mitochondrial DNA expression” value in series [12] is given as “inhibits mitochondrial DNA expression”. Moreover, the anti-tumor effects entry in [13] is on record as “strong anti-tumor effects”. In the series on mice, the “OXPHOS dysfunction or toxicity” value is “no evidence of OXPHOS dysfunction or toxicity”.

(Values after patent US20260374793A1, “MITOCHONDRIA SPECIFIC TRANSCRIPTION INHIBITORS” (LUNELLA BIOTECH, INC., priority 2023, published 2026).)
